Assays:
[1] = molecular target: Sodium-dependent noradrenaline transporter (Homo sapiens, UniProt P23975); test: DRUGMATRIX: Norepinephrine Transporter radioligand binding (ligand: [125I] RTI-55); type: cell membranes, MDCK, Membrane; conditions: Not Active = under 50% inhibition at 10 µM
[2] = molecular target: T1, Type-2 angiotensin II receptor (Homo sapiens, UniProt P50052); type: cell-based; conditions: cho-k1; note: in other assays of this panel Not Active means under 50% inhibition at 10 µM
T1 sequence (P50052 whole entry): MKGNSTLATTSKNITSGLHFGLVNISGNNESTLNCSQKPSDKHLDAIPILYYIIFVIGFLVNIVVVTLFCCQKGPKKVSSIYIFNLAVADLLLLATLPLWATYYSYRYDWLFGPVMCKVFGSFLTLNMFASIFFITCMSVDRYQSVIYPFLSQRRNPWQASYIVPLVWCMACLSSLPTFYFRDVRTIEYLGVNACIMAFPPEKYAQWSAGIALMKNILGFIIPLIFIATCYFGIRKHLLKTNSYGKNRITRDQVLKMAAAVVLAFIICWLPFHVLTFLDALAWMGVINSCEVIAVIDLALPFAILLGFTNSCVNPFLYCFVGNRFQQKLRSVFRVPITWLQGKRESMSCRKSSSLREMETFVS

[3] = DRUGMATRIX: beta-Lactamase enzyme inhibition (substrate: Nitrocefin); design: species or system Bacillus cereus; conditions: Not Active = under 50% inhibition at 10 µM
[4] = DRUGMATRIX: Serotonin (5-Hydroxytryptamine) 5-HT3 radioligand binding (ligand: [3H] GR-65630); type: cell membranes, Membrane; conditions: hek293; Not Active = under 50% inhibition at 10 µM
Vasopressin V1a receptor = Vasopressin V1a receptor (Homo sapiens, UniProt P37288); type: cell membranes, Membrane; conditions: hek293; note: in other assays of this panel Not Active means under 50% inhibition at 10 µM
Vasopressin V1a receptor, sequence (P37288 whole entry): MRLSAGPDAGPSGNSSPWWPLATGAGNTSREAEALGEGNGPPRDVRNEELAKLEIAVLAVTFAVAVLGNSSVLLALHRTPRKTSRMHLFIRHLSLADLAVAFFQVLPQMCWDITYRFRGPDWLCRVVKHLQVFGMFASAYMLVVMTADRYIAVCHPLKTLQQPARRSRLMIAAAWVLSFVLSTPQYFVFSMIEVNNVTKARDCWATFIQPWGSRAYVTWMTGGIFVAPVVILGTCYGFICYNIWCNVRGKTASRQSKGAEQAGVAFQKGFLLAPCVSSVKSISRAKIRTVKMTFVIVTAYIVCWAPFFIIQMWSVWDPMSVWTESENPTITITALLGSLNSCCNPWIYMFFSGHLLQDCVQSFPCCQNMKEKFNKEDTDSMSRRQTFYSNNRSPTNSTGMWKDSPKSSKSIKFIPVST

[5] = DRUGMATRIX: Glutamate, AMPA radioligand binding (ligand: [3H] AMPA); type: cell membranes, Rattus norvegicus, Wistar, Cerebral cortex, Membrane; conditions: Not Active = under 50% inhibition at 10 µM
[6] = molecular target: Matrix metalloproteinase-9 (Homo sapiens, UniProt P14780); test: biochemical; type: cell-based;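 note: inhibition of isolated MMP-9 enzyme activity toward a synthetic peptide substrate, from the DrugMatrix protease screening panel; in other assays of this panel Not Active means under 50% inhibition at 10 µM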
Matrix metalloproteinase-9, sequence (P14780 whole entry): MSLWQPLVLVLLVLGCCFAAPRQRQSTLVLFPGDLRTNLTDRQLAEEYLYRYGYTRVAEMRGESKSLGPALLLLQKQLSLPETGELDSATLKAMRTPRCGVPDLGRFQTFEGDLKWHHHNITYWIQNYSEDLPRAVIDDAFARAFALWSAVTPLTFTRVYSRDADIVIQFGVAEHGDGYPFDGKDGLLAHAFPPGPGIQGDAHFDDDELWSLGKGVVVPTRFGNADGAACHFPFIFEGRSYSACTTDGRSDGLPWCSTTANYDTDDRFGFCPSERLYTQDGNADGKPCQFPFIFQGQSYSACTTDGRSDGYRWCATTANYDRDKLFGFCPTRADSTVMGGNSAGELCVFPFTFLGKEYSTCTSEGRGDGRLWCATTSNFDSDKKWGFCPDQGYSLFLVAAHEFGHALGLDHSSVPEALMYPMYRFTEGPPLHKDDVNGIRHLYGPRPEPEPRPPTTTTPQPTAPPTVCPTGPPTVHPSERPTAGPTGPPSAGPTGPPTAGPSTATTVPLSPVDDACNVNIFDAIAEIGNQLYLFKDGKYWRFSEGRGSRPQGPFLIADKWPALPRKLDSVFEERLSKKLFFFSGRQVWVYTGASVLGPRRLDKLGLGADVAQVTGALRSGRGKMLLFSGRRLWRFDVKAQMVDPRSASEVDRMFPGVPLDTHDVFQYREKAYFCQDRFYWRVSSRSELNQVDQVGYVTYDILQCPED

Sodium-dependent noradrenaline transporter, sequence (P23975 whole entry): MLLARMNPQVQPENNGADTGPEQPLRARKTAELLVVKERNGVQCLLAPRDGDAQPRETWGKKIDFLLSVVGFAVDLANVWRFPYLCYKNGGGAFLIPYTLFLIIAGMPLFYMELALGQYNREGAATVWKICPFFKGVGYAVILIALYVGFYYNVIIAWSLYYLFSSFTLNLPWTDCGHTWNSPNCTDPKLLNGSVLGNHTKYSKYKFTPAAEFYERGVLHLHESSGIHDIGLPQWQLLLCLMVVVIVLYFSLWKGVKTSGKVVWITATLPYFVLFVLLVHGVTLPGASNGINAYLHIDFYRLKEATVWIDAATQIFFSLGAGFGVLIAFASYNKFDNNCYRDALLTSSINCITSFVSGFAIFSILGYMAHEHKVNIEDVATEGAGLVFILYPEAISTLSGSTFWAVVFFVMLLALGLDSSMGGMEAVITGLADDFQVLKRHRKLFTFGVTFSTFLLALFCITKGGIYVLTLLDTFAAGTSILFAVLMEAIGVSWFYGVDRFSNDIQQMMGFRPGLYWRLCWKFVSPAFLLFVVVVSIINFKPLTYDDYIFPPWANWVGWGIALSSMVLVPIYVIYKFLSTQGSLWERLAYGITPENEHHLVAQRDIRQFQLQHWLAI

Row | Structure (SMILES) | IC50 ([1]; mdck) | IC50 [2] | IC50 [3] | Ki [3] | IC50 [4] | Ki [4] | IC50 (Vasopressin V1a receptor) | IC50 [5] | Ki [5] | IC50 [6] | IC50 ([1]; read-out: IC50) | Ki ([1]; read-out: Ki)
1 | O=C(O)Cc1ccccc1Nc1c(Cl)cccc1Cl [DICLOFENAC] | Not Active | Not Active | Not Active | Not Active | Not Active | Not Active | Not Active | Not Active | Not Active | Not Active |  | 
2 | C[C@H]1O[C@@H](O[C@H]2[C@@H](O)C[C@H](O[C@H]3[C@@H](O)C[C@H](O[C@H]4CC[C@@]5(C)[C@H](CC[C@@H]6[C@@H]5CC[C@]5(C)[C@@H](C7=CC(=O)OC7)CC[C@]65O)C4)O[C@@H]3C)O[C@@H]2C)C[C@H](O)[C@@H]1O [DIGITOXIN] | Not Active | Not Active | Not Active | Not Active | Not Active | Not Active | Not Active | Not Active | Not Active | Not Active |  | 
3 | CCN1CC(CCN2CCOCC2)C(c2ccccc2)(c2ccccc2)C1=O (stereo unspecified) [DOXAPRAM] | Not Active | Not Active | Not Active | Not Active | Not Active | Not Active | Not Active | Not Active | Not Active | Not Active |  | 
4 | Cn1c(=O)c2c(ncn2CC2OCCO2)n(C)c1=O [DOXOFYLLINE] | Not Active | Not Active | Not Active | Not Active | Not Active | Not Active | Not Active | Not Active | Not Active | Not Active |  | 
5 | COc1cccc2c1C(=O)c1c(O)c3c(c(O)c1C2=O)C[C@@](O)(C(=O)CO)C[C@@H]3O[C@H]1C[C@H](N)[C@H](O)[C@H](C)O1 [DOXORUBICIN] | Not Active | Not Active | Not Active | Not Active | Not Active | Not Active | Not Active | Not Active | Not Active | Not Active |  | 
6 | COc1cccc2c1C(=O)c1c(O)c3c(c(O)c1C2=O)C[C@@](O)(C(=O)CO)C[C@@H]3O[C@H]1C[C@H](N)[C@@H](O)[C@H](C)O1 [EPIRUBICIN] | Not Active | Not Active | Not Active | Not Active | Not Active | Not Active | Not Active | Not Active | Not Active | Not Active |  | 
7 | C[C@]12CC[C@@H]3c4ccc(OC(=O)c5ccccc5)cc4CC[C@H]3[C@@H]1CC[C@@H]2O [ESTRADIOL BENZOATE] |  | Not Active | Not Active | Not Active | Not Active | Not Active | Not Active | Not Active | Not Active | Not Active | 17.2 µM | 17.1 µM
8 | C[C@]12CC[C@@H]3c4ccc(O)cc4CC[C@H]3[C@@H]1CC[C@@H]2O [ESTRADIOL] | Not Active | Not Active | Not Active | Not Active | Not Active | Not Active | Not Active | Not Active | Not Active | Not Active |  | 
9 | CC[C@@H](CO)NCCN[C@@H](CC)CO [ETHAMBUTOL] | Not Active | Not Active | Not Active | Not Active | Not Active | Not Active | Not Active | Not Active | Not Active | Not Active |  | 
10 | CC1(C)O[C@@H]2C[C@H]3[C@@H]4C[C@H](F)C5=CC(=O)C=C[C@]5(C)[C@H]4[C@@H](O)C[C@]3(C)[C@]2(C(=O)CO)O1 [FLUNISOLIDE] | Not Active | Not Active | Not Active | Not Active | Not Active | Not Active | Not Active | Not Active | Not Active | Not Active |  | 

Reference: ChEMBL document CHEMBL1909046, “DrugMatrix in vitro pharmacology data”
